Test results from ChEMBL document CHEMBL1201862, “PubChem BioAssay data set” (2004).
Activity calls are given as the source filed them.

What was measured:
Large T antigen = Large T antigen (Simian virus 40, UniProt P03070); type: functional, Betapolyomavirus macacae;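 also: Confirmatory-stage PubChem screen for compounds that inhibit SV40 T antigen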
[1] = molecular target: T1, Rac GTPase-activating protein 1 (Homo sapiens, UniProt Q9H0H5); experiment: MgcRacGAP GTPase-activating activity inhibitors, confirmation, biochemical, ADP Hunter fluorescence, primary and confirmatory (AID 624330); type: functional
T1 sequence (Q9H0H5 whole entry): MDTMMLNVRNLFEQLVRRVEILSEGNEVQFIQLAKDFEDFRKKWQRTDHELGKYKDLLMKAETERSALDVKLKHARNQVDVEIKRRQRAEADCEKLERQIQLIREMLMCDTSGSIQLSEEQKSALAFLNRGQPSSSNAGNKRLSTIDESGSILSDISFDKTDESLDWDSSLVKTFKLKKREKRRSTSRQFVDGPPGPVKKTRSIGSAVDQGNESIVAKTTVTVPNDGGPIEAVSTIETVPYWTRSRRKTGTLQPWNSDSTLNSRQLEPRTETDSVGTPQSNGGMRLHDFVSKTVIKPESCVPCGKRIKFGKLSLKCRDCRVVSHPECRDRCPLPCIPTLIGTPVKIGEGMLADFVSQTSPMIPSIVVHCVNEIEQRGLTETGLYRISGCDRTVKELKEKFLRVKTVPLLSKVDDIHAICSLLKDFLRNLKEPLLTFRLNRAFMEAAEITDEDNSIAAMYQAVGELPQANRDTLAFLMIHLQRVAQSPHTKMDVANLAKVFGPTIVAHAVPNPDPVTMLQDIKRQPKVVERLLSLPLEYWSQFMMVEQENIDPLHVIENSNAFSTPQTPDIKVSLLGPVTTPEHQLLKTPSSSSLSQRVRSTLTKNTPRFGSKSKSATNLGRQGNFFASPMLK

[2] = molecular target: T2, Replicative DNA helicase DnaB (Mycobacterium tuberculosis, UniProt P9WMR3); experiment: DnaB intein splicing inhibitors, dose response, biochemical, cell-free fluorescence (AID 449749); type: functional
T2 sequence (P9WMR3 whole entry): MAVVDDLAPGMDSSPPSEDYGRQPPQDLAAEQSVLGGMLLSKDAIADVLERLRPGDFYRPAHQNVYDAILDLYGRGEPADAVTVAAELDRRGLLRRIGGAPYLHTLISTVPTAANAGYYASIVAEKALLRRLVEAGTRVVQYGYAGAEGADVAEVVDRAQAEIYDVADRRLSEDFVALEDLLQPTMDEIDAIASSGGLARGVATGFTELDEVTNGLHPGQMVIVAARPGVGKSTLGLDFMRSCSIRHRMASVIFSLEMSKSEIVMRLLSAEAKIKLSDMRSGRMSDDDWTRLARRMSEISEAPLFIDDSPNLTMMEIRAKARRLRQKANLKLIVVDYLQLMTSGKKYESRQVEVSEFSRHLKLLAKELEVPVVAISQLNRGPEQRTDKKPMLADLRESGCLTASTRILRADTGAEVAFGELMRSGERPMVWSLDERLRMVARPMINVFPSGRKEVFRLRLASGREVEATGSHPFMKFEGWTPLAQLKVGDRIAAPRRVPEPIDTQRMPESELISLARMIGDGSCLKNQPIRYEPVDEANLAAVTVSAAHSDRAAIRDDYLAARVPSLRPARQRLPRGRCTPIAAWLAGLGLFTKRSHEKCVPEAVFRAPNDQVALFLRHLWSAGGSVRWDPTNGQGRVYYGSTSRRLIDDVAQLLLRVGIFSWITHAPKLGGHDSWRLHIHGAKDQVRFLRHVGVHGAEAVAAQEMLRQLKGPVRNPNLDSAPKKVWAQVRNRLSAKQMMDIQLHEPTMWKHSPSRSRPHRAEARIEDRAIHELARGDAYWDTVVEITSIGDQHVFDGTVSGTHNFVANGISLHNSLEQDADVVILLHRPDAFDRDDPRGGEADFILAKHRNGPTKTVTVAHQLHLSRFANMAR

[3] = THP-1 cell cytotoxicity, dose response, cytotoxicity control for non-replicating M. tuberculosis project (AID 489025); type: functional
Protein RecA = molecular target: T3, Protein RecA (Mycobacterium tuberculosis, UniProt P9WHJ3); experiment: Fluorescence Cell-Free Homogeneous Dose Retest to Identify Inhibitors of RecA-Intein Splicing Activity. [Related pubchem assays (depositor defined):AID2097, AID2223, AID489010, AID492950]; type: functional
T3 sequence (P9WHJ3 whole entry): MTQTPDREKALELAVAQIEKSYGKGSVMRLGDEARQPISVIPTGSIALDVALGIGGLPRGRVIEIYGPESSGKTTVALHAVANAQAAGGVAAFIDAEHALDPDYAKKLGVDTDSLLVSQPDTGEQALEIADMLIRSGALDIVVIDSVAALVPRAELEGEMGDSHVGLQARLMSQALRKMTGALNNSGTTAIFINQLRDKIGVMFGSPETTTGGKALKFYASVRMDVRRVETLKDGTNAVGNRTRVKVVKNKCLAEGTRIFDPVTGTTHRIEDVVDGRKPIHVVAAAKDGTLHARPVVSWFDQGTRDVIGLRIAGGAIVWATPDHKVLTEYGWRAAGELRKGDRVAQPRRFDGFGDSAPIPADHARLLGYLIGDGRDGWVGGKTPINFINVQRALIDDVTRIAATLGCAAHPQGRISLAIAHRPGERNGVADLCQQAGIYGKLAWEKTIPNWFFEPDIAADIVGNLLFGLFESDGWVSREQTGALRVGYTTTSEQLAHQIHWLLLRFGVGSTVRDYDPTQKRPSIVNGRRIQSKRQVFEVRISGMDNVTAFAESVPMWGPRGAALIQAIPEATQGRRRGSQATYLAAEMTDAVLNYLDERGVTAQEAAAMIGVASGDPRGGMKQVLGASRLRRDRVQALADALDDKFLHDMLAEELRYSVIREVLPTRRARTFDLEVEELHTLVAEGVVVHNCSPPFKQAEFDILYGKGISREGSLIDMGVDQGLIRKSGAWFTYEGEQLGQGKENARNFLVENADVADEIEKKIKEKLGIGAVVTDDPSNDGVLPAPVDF

cells = type: functional
Aminopeptidase N = molecular target: T4, Aminopeptidase N (Plasmodium falciparum FcB1/Columbia, UniProt O96935); experiment: P. falciparum M1AAP inhibitors, biochemical, fluorogenic H-Leu-NHMec substrate, 1536-well (AID 1445); parameters: species or system Plasmodium falciparum 3D7, 3D7
T4 sequence (O96935 whole entry): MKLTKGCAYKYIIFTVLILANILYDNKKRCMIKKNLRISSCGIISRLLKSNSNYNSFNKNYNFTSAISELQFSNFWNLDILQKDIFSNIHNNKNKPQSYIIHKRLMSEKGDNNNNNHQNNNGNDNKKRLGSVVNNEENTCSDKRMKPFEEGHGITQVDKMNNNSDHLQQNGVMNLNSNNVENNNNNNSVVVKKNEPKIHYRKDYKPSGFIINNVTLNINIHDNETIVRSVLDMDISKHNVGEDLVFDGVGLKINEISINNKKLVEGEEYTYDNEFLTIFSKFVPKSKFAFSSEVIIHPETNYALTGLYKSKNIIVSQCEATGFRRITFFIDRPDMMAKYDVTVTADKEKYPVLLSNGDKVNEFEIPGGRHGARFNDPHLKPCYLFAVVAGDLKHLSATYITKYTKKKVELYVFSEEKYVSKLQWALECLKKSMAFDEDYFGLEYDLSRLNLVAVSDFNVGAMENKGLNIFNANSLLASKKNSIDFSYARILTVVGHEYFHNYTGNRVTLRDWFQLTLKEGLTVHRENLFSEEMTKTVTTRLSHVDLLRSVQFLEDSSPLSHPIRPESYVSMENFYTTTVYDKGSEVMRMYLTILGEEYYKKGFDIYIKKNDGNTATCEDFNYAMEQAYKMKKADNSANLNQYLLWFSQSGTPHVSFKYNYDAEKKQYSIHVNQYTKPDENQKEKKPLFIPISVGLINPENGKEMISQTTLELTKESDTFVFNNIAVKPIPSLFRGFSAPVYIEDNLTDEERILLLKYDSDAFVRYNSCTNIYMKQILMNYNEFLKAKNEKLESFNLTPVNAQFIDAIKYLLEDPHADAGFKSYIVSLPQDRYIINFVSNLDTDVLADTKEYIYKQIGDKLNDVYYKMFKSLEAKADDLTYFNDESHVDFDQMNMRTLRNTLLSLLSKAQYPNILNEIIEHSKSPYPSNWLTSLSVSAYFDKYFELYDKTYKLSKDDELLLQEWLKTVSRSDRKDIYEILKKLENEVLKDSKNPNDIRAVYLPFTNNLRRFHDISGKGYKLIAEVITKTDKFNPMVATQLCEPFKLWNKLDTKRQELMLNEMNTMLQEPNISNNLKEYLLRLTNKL

Leucine aminopeptidase = molecular target: T5, Leucine aminopeptidase (Plasmodium falciparum 3D7, UniProt Q8IL11); experiment: P. falciparum M17LAP inhibitors, primary screen, biochemical, fluorogenic H-Leu-NHMec substrate, 1536-well (AID 1619); type: functional
T5 sequence (Q8IL11 whole entry): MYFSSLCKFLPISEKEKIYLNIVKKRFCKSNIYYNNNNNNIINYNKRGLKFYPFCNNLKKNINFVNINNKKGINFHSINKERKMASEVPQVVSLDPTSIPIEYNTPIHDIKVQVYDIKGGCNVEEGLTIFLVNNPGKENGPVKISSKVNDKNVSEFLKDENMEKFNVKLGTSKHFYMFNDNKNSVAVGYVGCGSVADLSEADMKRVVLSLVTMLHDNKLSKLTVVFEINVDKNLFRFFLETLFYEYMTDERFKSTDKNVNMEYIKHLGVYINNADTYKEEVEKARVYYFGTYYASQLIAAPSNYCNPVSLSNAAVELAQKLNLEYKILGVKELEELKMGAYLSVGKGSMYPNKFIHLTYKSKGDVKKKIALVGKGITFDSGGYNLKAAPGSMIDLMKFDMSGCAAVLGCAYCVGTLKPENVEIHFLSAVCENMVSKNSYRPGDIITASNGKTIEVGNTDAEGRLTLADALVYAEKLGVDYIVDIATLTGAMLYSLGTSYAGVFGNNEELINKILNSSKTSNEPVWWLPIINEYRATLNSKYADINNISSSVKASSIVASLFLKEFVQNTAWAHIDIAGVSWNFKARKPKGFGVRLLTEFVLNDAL

[4] = inhibitors of Bluetongue virus cytopathic effect, confirmation, arbovirus, BSR cells (AID 1250); type: functional;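 also: protection from viral cytopathic effect measured as cell viability by ATP luminescence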
[5] = NIH-3T3 fibroblast cytotoxicity, dose response, cytotoxicity control, cell-based, fluorescence, Alamar Blue, secondary assay (AID 2327); type: functional;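 also: NIH-3T3 mouse fibroblasts cultured with fluconazole at 8 µg/mL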
[6] = C. albicans growth with fluconazole, confirmation, fluorescence, retest (AID 2467); type: functional, cell-based
Cytochrome P450 2D6 = Cytochrome P450 2D6 (Homo sapiens, UniProt P10635);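 also: CYP2D6 member of a cytochrome P450 panel assay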
Cytochrome P450 1A2 = molecular target: T6, Cytochrome P450 1A2 (Homo sapiens, UniProt P05177);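 also: PubChem cytochrome P450 panel assay, CYP1A2 panel member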
T6 sequence (P05177 whole entry): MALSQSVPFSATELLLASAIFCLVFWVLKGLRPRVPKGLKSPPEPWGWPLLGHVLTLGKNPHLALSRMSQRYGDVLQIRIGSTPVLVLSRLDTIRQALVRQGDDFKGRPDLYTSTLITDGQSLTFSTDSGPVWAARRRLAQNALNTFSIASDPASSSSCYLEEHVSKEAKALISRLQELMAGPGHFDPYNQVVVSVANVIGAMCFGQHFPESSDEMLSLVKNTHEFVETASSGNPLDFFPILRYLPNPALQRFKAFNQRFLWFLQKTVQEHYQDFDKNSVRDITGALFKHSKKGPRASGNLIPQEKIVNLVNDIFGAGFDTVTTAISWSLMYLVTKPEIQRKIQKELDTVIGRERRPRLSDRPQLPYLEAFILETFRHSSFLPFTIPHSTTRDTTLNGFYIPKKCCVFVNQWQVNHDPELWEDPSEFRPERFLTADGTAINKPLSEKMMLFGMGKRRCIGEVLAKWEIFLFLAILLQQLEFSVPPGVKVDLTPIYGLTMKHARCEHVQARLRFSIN

Genome polyprotein = Genome polyprotein (dengue virus type 2, UniProt P29990); experiment: Dengue-2 NS5 methyltransferase inhibitors, primary screen, biochemical, confirmation dose response (AID 588689); type: functional
[7] = molecular target: DNA dC->dU-editing enzyme APOBEC-3A (Homo sapiens, UniProt P31941); experiment: Dose Response confirmation of small molecule APOBEC3A DNA Deaminase Inhibitors via a fluorescence-based single-stranded DNA deaminase assay. [Related pubchem assays (depositor defined):AID493011, AID493024]; type: functional
DNA dC->dU-editing enzyme APOBEC-3A, sequence (P31941 whole entry): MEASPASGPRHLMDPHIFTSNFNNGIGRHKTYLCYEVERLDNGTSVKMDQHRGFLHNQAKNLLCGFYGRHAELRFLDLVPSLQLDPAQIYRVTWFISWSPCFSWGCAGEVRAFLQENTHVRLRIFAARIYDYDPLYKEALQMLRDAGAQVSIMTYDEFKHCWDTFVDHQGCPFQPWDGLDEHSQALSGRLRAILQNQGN

Large T antigen, sequence (P03070 whole entry): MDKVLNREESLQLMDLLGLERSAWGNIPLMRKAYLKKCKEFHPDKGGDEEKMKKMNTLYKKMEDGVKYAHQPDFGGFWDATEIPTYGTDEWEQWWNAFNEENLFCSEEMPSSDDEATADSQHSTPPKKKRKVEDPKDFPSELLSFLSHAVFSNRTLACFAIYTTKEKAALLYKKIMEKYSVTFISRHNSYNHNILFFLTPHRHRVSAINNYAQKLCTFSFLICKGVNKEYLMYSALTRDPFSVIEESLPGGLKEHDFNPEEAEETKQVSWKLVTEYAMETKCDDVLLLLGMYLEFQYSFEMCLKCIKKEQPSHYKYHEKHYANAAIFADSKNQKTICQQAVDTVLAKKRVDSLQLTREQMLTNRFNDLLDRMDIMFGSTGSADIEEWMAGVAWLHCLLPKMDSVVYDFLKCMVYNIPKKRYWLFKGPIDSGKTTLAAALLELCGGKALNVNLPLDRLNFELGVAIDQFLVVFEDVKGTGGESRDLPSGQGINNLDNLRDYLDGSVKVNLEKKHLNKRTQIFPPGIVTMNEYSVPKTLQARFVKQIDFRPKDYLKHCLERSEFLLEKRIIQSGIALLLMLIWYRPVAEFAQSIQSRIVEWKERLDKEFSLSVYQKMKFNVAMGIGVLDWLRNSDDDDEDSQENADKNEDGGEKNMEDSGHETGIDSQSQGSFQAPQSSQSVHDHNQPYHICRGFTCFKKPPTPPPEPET
Genome polyprotein, sequence (P29990 2492-3391 limits assumed): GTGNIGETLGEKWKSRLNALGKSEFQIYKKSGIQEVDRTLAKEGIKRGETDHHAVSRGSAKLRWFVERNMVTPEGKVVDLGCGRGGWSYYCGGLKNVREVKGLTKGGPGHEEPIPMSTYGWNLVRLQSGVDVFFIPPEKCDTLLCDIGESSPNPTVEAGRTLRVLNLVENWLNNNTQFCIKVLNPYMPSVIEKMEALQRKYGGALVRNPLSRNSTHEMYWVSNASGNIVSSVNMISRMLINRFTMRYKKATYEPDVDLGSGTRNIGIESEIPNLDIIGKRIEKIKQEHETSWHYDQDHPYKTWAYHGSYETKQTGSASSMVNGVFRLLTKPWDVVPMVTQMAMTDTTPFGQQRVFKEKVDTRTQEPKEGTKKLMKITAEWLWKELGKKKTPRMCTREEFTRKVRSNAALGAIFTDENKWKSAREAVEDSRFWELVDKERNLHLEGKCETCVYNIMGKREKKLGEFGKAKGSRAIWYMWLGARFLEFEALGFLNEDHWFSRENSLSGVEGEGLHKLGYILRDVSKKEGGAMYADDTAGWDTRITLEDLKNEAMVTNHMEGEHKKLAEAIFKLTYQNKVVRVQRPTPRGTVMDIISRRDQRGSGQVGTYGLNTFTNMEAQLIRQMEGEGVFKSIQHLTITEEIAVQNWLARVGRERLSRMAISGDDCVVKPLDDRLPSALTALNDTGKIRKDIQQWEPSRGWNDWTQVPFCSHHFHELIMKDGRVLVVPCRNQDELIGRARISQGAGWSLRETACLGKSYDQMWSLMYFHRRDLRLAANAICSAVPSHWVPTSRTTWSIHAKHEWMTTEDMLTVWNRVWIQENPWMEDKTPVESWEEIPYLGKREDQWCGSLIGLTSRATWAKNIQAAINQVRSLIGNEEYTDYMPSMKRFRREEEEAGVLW
Cytochrome P450 2D6, sequence (P10635 whole entry): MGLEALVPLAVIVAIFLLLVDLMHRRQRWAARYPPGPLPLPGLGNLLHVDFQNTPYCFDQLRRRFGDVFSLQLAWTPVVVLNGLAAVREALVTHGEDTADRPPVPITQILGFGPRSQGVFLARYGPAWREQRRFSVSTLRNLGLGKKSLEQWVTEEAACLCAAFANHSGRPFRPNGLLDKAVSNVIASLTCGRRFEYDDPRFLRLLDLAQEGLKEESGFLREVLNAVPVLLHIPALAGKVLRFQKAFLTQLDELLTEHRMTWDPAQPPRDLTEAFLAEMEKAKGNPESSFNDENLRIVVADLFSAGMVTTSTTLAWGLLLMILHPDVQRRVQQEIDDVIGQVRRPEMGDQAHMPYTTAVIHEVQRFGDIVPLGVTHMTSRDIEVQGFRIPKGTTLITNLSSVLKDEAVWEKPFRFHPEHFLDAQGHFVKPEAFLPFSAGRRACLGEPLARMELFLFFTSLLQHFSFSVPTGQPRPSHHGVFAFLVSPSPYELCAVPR

## CN(C)c1ccc(NC(=O)CN2C(=O)CN=C(c3ccccc3)c3ccccc32)cc1
Large T antigen
  IC50: 11.9 µM (active)
[1]
  IC50: 72 µM (active)

## COC(=O)c1ccccc1Sc1ncnc2onc(C)c12
[2]
  AC50: 12.4 µM (active)
[3]
  CC50: > 40 µM (active)
Protein RecA
  EC50: 9.04 µM (active)
cells
  IC50: 10.9 µM (active)

## O=C1NC(=O)N(Cc2ccccc2)C(=O)/C1=C/NNC(=O)c1ccccc1O
Aminopeptidase N
  IC50: 17.3 µM (active)
Leucine aminopeptidase
  IC50: 62.3 µM (active)
[4]
  IC50: 97.4 µM (active)

## Cc1nc(N)sc1N=Nc1c(C)n(C)n(-c2ccccc2)c1=O
Large T antigen
  IC50: 17.3 µM (active)

## O=C1NC2(CCC3(CC2)OCCO3)NN1c1ccc(Cl)cc1
[5]
  EC50: > 150 µM (inactive)
[6]
  EC50: 1.64 µM (active)
[3]
  CC50: > 40 µM (active)

## COc1cc(/C=C2\C(=O)NC(=O)N(CCc3ccc(F)cc3)C2=O)ccc1O
Large T antigen
  IC50: 20 µM (active)
Leucine aminopeptidase
  IC50: 15.8 µM (active)

## O=C1Nc2ccc(F)cc2C12Nc1ccccc1-c1nnc(SCc3ccccc3F)nc1O2 (stereo unspecified)
Aminopeptidase N
  IC50: 68.4 µM (active)
Cytochrome P450 2D6
  AC50: 14.1 µM (inconclusive)
Cytochrome P450 1A2
  AC50: 10 µM (inconclusive)
Genome polyprotein
  IC50: 30.8 µM (active)

## CCC(Oc1ccccc1OC)C(=O)Nc1ccc2c(c1)OCCO2 (stereo unspecified)
[7]
  IC50: 6.09 µM (active)

## COc1cc(/C=N/Nc2ccnc(O)n2)ccc1O
Large T antigen
  IC50: 6.16 µM (active)
